Measured values published in patent US20240376084A1, “INHIBITORS OF ALPHA-HEMOLYSIN OF STAPHYLOCOCCUS AUREUS” (Helmholtz-Zentrum Fur Infektionsforschung GmbH, priority 2021, published 2024).

Tests used:
[1] = target: hemolysin alpha from Staphylococcus aureus (Staphylococcus aureus, UniProt P09616); assay: cell-based
[2] = target: S. aureus Alpha hemolysin (Staphylococcus aureus, UniProt P09616); assay: cell-based; conditions: A549-LDH Assay activity
Chain of S. aureus Alpha hemolysin (P09616 27-319 limits assumed): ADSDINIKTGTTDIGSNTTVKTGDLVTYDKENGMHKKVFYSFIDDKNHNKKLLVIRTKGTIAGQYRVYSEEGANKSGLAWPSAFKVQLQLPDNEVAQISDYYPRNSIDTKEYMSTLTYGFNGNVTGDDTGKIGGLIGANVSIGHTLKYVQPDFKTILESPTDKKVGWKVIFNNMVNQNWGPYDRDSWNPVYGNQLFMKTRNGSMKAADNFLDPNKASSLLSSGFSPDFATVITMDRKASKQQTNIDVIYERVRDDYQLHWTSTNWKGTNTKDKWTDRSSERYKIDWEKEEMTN

Chain of hemolysin alpha from Staphylococcus aureus (P09616 27-319 limits assumed): as above

## Cc1cc2[nH]c(=O)c(=O)[nH]c2cc1S(=O)(=O)Nc1ccc(-c2cccc(C(C)C)c2)c(Cl)c1 [Compound 39, N-(2-chloro-3′-isopropyl-[1,1′-biphenyl]-4-yl)-7-methyl-2,3-dioxo-1,2,3,4-tetrahydroquinoxaline-6-sulfonamide]
[1]
  IC50: 30 to 100 nM
[2]
  EC50: 1000 to 6000 nM

## Cc1cc2[nH]c(=O)c(=O)[nH]c2cc1S(=O)(=O)Nc1ccc(-c2ccc(F)c(Cl)c2F)c(Cl)c1 [Compound 2, N-(2,3′-dichloro-2′,4′-difluoro-[1,1′-biphenyl]-4-yl)-7-methyl-2,3-dioxo-1,2,3,4-tetrahydroquinoxaline-6-sulfonamide]
[1]
  IC50: < 30 nM
[2]
  EC50: 100 to 1000 nM

## Cc1cc2[nH]c(=O)c(=O)[nH]c2cc1S(=O)(=O)Nc1ccc(-c2ccc(F)cc2)c(Cl)c1 [Compound 3, N-(2-chloro-4′-fluoro-[1,1′-biphenyl]-4-yl)-7-methyl-2,3-dioxo-1,2,3,4-tetrahydroquinoxaline-6-sulfonamide]
[1]
  IC50: < 30 nM
[2]
  EC50: 30 to 100 nM

## Cc1cc2[nH]c(=O)c(=O)[nH]c2cc1S(=O)(=O)Nc1ccc(-c2ccc(F)cc2)c(Br)c1 [Compound 244, N-[3-bromo-4-(4-fluorophenyl)phenyl]-7-methyl-2,3-dioxo-1,4-dihydroquinoxaline-6-sulfonamide]
[1]
  EC50: < 30 nM
[2]
  EC50: 30 to 100 nM

## COCCn1cc(-c2ccc(NS(=O)(=O)c3cc4[nH]c(=O)c(=O)[nH]c4cc3C)cc2Cl)cn1 [Compound 344, N-[3-chloro-4-[1-(2-methoxyethyl)pyrazol-4-yl]phenyl]-7-methyl-2,3-dioxo-1,4-dihydroquinoxaline-6-sulfonamide]
[1]
  EC50: 1000 to 3500 nM
[2]
  EC50: 1000 to 6000 nM

## Cc1cc2[nH]c(=O)c(=O)[nH]c2cc1S(=O)(=O)Nc1ccc(-n2cncn2)c(Cl)c1 [Compound 263, N-[3-chloro-4-(1,2,4-triazol-1-yl)phenyl]-7-methyl-2,3-dioxo-1,4-dihydroquinoxaline-6-sulfonamide]
[1]
  EC50: 1000 to 3500 nM
[2]
  EC50: 100 to 1000 nM

## Cc1cc2[nH]c(=O)c(=O)[nH]c2cc1S(=O)(=O)Nc1ccc(-c2ccc(F)cc2)c(C(F)(F)F)c1 [Compound 326, N-[4-(4-fluorophenyl)-3-(trifluoromethyl)phenyl]-7-methyl-2,3-dioxo-1,4-dihydroquinoxaline-6-sulfonamide]
[1]
  EC50: < 30 nM
[2]
  EC50: 30 to 100 nM

## Cc1cc2[nH]c(=O)c(=O)[nH]c2cc1S(=O)(=O)Nc1ccc(C2CCCCC2)cc1 [Compound 86, N-(4-cyclohexylphenyl)-7-methyl-2,3-dioxo-1,2,3,4-tetrahydroquinoxaline-6-sulfonamide]
[1]
  IC50: 100 to 1000 nM
[2]
  EC50: 100 to 1000 nM

## Cc1cc2[nH]c(=O)c(=O)[nH]c2cc1S(=O)(=O)Nc1ccc(-c2ccc3cc[nH]c3c2)c(Cl)c1 [Compound 271, N-[3-chloro-4-(1H-indol-6-yl)phenyl]-7-methyl-2,3-dioxo-1,4-dihydroquinoxaline-6-sulfonamide]
[1]
  EC50: < 30 nM
[2]
  EC50: < 30 nM

## Cc1cc2[nH]c(=O)c(=O)[nH]c2cc1S(=O)(=O)Nc1cc(C)c(-c2ccccc2)c(C)c1 [Compound 73, N-(2,6-dimethyl-[1,1′-biphenyl]-4-yl)-7-methyl-2,3-dioxo-1,2,3,4-tetrahydroquinoxaline-6-sulfonamide]
[1]
  IC50: 100 to 1000 nM
[2]
  EC50: 100 to 1000 nM

## Cc1cc2[nH]c(=O)c(=O)[nH]c2cc1S(=O)(=O)Nc1ccc(-c2ccc3c(c2)NC(=O)CO3)c(Cl)c1 [Compound 355, N-[3-chloro-4-(3-oxo-4H-1,4-benzoxazin-6-yl)phenyl]-7-methyl-2,3-dioxo-1,4-dihydroquinoxaline-6-sulfonamide]
[1]
  EC50: < 30 nM
[2]
  EC50: < 30 nM

## COc1ncc(-c2ccc(NS(=O)(=O)c3cc4[nH]c(=O)c(=O)[nH]c4cc3C)cc2Cl)cn1 [Compound 260, N-[3-chloro-4-(2-methoxypyrimidin-5-yl)phenyl]-7-methyl-2,3-dioxo-1,4-dihydroquinoxaline-6-sulfonamide]
[1]
  EC50: 100 to 1000 nM
[2]
  EC50: 100 to 1000 nM
